Where a name gives a salt, the structure may show the parent alone.
Experiments:
[1] = Body weight of POI model mice before modeling, after modeling and after treatment; format: in vivo; settings: for Body weight before modeling: D 0, 100 mg/kg/d oral; for Body weight after modeling: D 7, 100 mg/kg/d oral; for Body weight after treatment: D 13, 100 mg/kg/d oral
Experimental: Animal model establishment: A total of 34 C57 female mice (8-week-old) were selected and intraperitoneally injected with the ratio of 120 mg/kg cyclophosphamide (SIGMA) and 30 mg/kg Busulfan (Aladdin) once a day for 1 week at the dose of 0.1 mL/10 g to establish the model of POI.
Grouping: 34 POI model mice were randomly divided into four groups: sodium fumarate (SF) treatment group (n=9), hyodeoxycholic acid (HDCA) treatment group (n=8), sodium fumarate plus hyodeoxycholic acid (mass ratio 1:1) combination (SF+HDCA) treatment group (n=8) and normal saline (Vehicle) group (n=9). Mice in the SF group were given oral administration of SF at the ratio of 100 mg/kg/d body weight, mice in the HDCA group were given oral administration of HDCA at the ratio of 100 mg/kg/d body weight, and mice in the combination group were given oral administration of SF and HDCA at the ratio of 100 mg/kg/d body weight. SF and HDCA were dissolved with 0.9% normal saline when used. Mice in the vehicle group were given the same amount of normal saline orally. All the mice were treated consecutively for 12 days.
Body weight were recorded at three time points, before modeling (at the beginning of treatment), after modeling and after treatment.
Animal model establishment: A total of 24 C57 mice (8-week-old) were selected and intraperitoneally injected with the ratio of 120 mg/kg cyclophosphamide and 30 mg/kg Busulfan once a day for 1 week at the dose of 0.1 mL/10 g to establish the model of POI.
Grouping: 24 POI model mice were randomly divided into four groups: dimethyl fumarate (DMF) treatment group (n=5), hyodeoxycholic acid (HDCA) treatment group (n=6), dimethyl fumarate plus hyodeoxycholic acid (mass ratio=1:1) combination (DMF+HDCA) treatment group (n=7) and normal saline (Vehicle) group (n=6). Mice in the DMF treatment group were orally administrated at the ratio of 100 mg/kg/d body weight. Mice in the HDCA treatment group were given oral administration of HDCA at the ratio of 100 mg/kg/d body weight, and mice in the combination group were given oral administration of DMF and HDCA at the ratio of 100 mg/kg/d body weight. Once daily, DMF and HDCA were dissolved in 0.9% normal saline when used. Mice in normal saline group were given the same amount of normal saline orally every day. The drug was administered for 12 days.
Body weight were recorded at three time points, before modeling (at the beginning of treatment, the 0th day), after modeling (the 7th day) and after treatment (the 13th day).
The body weight of POI model mice of each group was measured before modeling, after modeling and after treatment.

POI model mice [2] = test: Estrous cycle observation by vaginal smear cytology in POI model mice; format: in vivo
Experimental: Cytological observation of vaginal smear was performed daily.
The vagina of mice was exposed, and about 30 μl of normal saline was dripped into the vagina, gently aspirated onto the slide, and observed under the microscope. Staining was performed when necessary, fixed with 95% ethanol for 10 minutes, stained with hematoxylin in aqueous solution for 5-8 minutes, washed with running water for color separation, and then stained with eosin for 3 minutes. After drying. the slices were sealed with neutral gum.
The vagina of mice was exposed, and about 30 μl of normal saline was dripped into the vagina, gently aspirated onto the slide, and observed under the microscope. Staining was performed when necessary, stained with hematoxylin in aqueous solution for several minutes after drying, washed with running water for color separation, and then stained with alchhol eosin for several seconds. The slices were sealed with neutral gum.
During the estrous cycle, a series of histological and physiological changes occur in the reproductive and endocrine systems of mice. According to these changes, the estrous cycle can be divided into proestrous (P), estrous (E), metestrum (M) and diestrum (D). • 1. Observation of estrous cycle in mice of Example 1
After modeling and treatment, there were 6 mice left in the normal saline group, 6 mice left in the sodium fumarate treatment group, 7 mice left in the hyodeoxycholic acid group, and 7 mice left in the sodium fumarate and hyodeoxycholic acid combination group. […] The estrous cycle was divided into four periods (P: proestrous; E: estrous period; M: metestrum; D: diestrum) for vaginal smear cytological observation, the results are shown in FIG. 3.
The estrous cycle of mice was plotted according to the cytological results of vaginal smears observed for 12 consecutive days, and the results are shown in FIG. 4. The estrous cycle of mice is about 4 to 5 days, which is divided into four periods alternately. […] The estrous cycle of 4 mice was recovered in sodium fumarate treatment group. The estrous cycle of 3 mice was recovered in HDCA group. The estrous cycle of 6 mice was recovered in group treated with SF and HDCA.

POI mice [3] = test: Serum FSH level in POI mice; format: in vivo; settings: for FSH: serum, after 12 days 100 mg/kg/d oral
Source text: (§1) Biomarkers mentioned herein, such as follicle stimulating hormone (FSH), estrogen (e.g., E2), and superoxide dismutase (SOD), malondialdehyde (MDA), relative reactive oxygen species (ROS), and lactate dehydrogenase (LDH), etc., can be detected using methods commonly known in the field. Detection methods typically cover methods that quantify the level of a biomarker in a sample (quantitative methods). Which of the following methods are suitable for qualitative and/or quantitative detection of biomarkers is generally known to those skilled in the field. Samples can be conveniently measured, for example for proteins using immunoassays such as ELISA, RIA, etc., which are commercially available.
(§2) After 12 days of administration, half of the mice in each group were sacrificed, and their blood was collected and kept still. The serum was separated after centrifugation at 4500 rpm and stored in a refrigerator at −80° C. for future use to measure levels of follicle stimulating hormone, estrogen, and the indexes of oxidative stress such as superoxide dismutase (SOD) and malondial dehyde (MDA).
as §2, with “kept in” for “kept”, “levals” for “levels”, “malondialdehyde” for “malondial dehyde”
• 1. Hormone levels in mice blood of Example 1 are measured in this embodiment.

POI mice [4] = test: Serum estradiol (E2) level in POI mice; format: in vivo; settings: for E2: serum, after 12 days 100 mg/kg/d oral
Source text: as §1, §2
as §2, with “kept in” for “kept”, “levals” for “levels”, “malondialdehyde” for “malondial dehyde”

POI mice [5] = test: Serum lactate dehydrogenase (LDH) level; format: in vivo
Source text: as §1

[6] = tested on: aged mice with ovarian dysfunction; test: Ovulation after controlled ovarian hyperstimulation in aged mice; format: in vivo; settings: fourteen months old mice
Experimental: In this Embodiment, the effect of sodium fumarate and hyodeoxy cholic acid on ovulation in aged mice with ovarian dysfunction (ovarian function decline due to natural aging) was examined. Fourteen months old mice were divided into three groups: control group (n=6), sodium fumarate group (SF, n=4), sodium fumarate and hyodeoxy cholic acid group (SF+HDCA, n=3).
Methods: After controlled ovarian hyperstimulation (48 hours after pregnant horse serum injection, followed by chorionic gonadotropin injection), the ampulla of fallopian tubes of mice was collected 14-16 hours later, and the number of oocytes obtained was recorded. […] All 4 mice in the SF group ovulated.

POI mice [7] = test: Serum superoxide dismutase (SOD) level, oxidative stress; format: in vivo
Source text: as §1, §2
as §2, with “kept in” for “kept”, “levals” for “levels”, “malondialdehyde” for “malondial dehyde”
(§3) The oxidative stress hypothesis believes that the reduction of antioxidant components in the body leads to the weakening of the ability to remove free radicals, which leads to oxidative damage of biological macromolecules, and the imbalance of cellular oxidative and antioxidant functions, which leads to oxidative stress, and then leads to disease and aging. Oxygen free radicals act on unsaturated fatty acids of lipids to generate lipid peroxides, including malondialdehyde (MDA) and so on. The antioxidant defense system of scavenging free radicals includes superoxide dismutase (SOD) and so on. Recently, oxidative stress has been reported to be associated with ovarian aging and POI in primates. Therefore, this embodiment examined the effects of DMF, HDCA, and DMF+HDCA on oxidative stress in mice with premature ovarian failure, and the results are shown in Table 5, FIGS. 9 to 12.

POI mice [8] = test: Serum malondialdehyde (MDA) level, oxidative stress; format: in vivo
Source text: as §1, §2
as §2, with “kept in” for “kept”, “levals” for “levels”, “malondialdehyde” for “malondial dehyde”
as §3

POI mice [9] = test: Serum relative reactive oxygen species (ROS) level; format: in vivo
Source text: as §1, §3

ovarian tissues = test: RNA transcription level sequencing of ovarian tissues, differentially expressed genes; format: in vivo, mice; settings: ovarian tissue RNA sequencing, FC>2, Q<0.05
Experimental: Mice were sacrificed after various treatments, and ovarian tissues were taken, snap-frozen in liquid nitrogen, stored at −80° C., and sent to Annoroad for RNA transcription level sequencing. Bioinformatics analysis and mapping were performed on the sequencing results. […] The differential genes of the three treatment groups were intersectioned. […] These differential gene sets were then subjected to Gene Ontology function (GO) enrichment (FC>2, Q<0.05) (FIG. 16) and signaling pathway (KEGG) analysis mapping (FIG. 17), respectively.

POI model mice [10] = test: Estrous cycle observation by vaginal smear cytology in POI model mice; format: in vivo; remark: listed apart in the source
[11] = Example 1, during drug administration, FIG. 4B
[12] = serum, POI mice after treatment
[13] = Example 2, FIG. 8, not statistically significant
[14] = Example 2, during drug administration, FIG. 5B

## O=C([O-])/C=C/C(=O)[O-].[Na+].[Na+] [SF, sodium fumarate]
[1]; Example 1 POI mice
  Body weight before modeling: 18.77 ± 0.63 g
  Body weight after modeling: 18.15 ± 0.92 g
  Body weight after treatment: 18.07 ± 1.03 g
[1]; Example 1 POI mice, FIG. 2A
  Weight recovery after chemotherapy: significantly beneficial
[1]; Example 2 POI mice, FIG. 2B
  Weight recovery after chemotherapy: significantly beneficial
POI model mice [2]; Example 1
  Effect on mice with premature ovarian failure (conclusion from estrous cycle): preventive and therapeutic effects
POI model mice [2]; [11]
  Average rate of diestrum (D) in estrous cycle: 20.83%
  Average rate of estrous stage (E) in estrous cycle: 20.83%
  Average rate of metestrum (M) in estrous cycle: 18.10%
  Average rate of proestrous (P) in estrous cycle: 40.28%
POI model mice [2]; Example 1, 12 days observation, 6 SF, 7 HDCA, 7 SF and HDCA mice left
  Number of mice with estrous cycle recovered: 4 mice
POI mice [3]; Example 1, FIG. 6
  Serum FSH level compared with the normal saline group: certain increasing trend
POI mice [3]; Example 1 POI mice
  FSH: 8.56 ± 2.59 mIU/mL
POI mice [4]; Example 1, FIG. 7
  Serum E2 level compared with the normal saline group: tendency to increase
POI mice [4]; Example 1 POI mice
  E2: 57.24 ± 4.56 pg/mL
POI mice [5]; FIG. 12
  Activity of LDH compared with the normal saline group: reduced to some extent
POI mice [5]; [12]
  LDH: 3136.09 ± 294.67 U/mL
[6]
  Restoration of ovulation in aged mice: can restore ovulation
[6]; SF n=4, SF+HDCA n=3, FIG. 13
  Number of mice that ovulated: 4 mice

## COC(=O)/C=C/C(=O)OC [DMF, dimethyl fumarate]
[1]; Example 2 POI mice
  Body weight before modeling: 19.22 ± 1.39 g
  Body weight after modeling: 16.54 ± 1.44 g
  Body weight after treatment: 16.98 ± 1.99 g
POI mice [3]; [13]
  Serum FSH level compared with the normal saline group: certain decreasing trend
POI mice [3]; Example 2 POI mice
  FSH: 2.39 ± 1.07 mIU/mL
POI mice [4]; [13]
  Serum E2 level compared with the normal saline group: certain tendency to decrease
POI mice [4]; Example 2 POI mice
  E2: 48.86 ± 11.41 pg/mL
POI mice [7]; FIG. 9, difference not significant
  Activity of SOD compared with the normal saline group: increased
POI mice [7]; [12]
  SOD: 14.42 ± 9.05 U/mL
POI mice [8]; FIG. 10, no significant difference
  MDA activity compared with the normal saline group: reduced to some extent
POI mice [8]; [12]
  MDA: 1.83 ± 3.06 nmol/mL
POI mice [9]; FIG. 11
  ROS levels compared with the normal saline group: significantly reduced
POI mice [9]; relative ROS level in serum, POI mice after treatment
  ROS: 4.610 ± 0.476
Ovarian tissues
  Number of genes down-regulated compared with the control group: 5261 genes
  Number of genes up-regulated compared with the control group: 1547 genes
POI model mice [10]; Example 2
  Effect on mice with premature ovarian failure (conclusion from estrous cycle): preventive and therapeutic effects
POI model mice [10]; [14]
  Average rate of diestrum (D) in estrous cycle: 55.00%
  Average rate of estrous (E) stage in estrous cycle: 15.00%
  Average rate of metestrum (M) in estrous cycle: 2.50%
  Average rate of proestrous (P) in estrous cycle: 27.50%
POI model mice [10]; Example 2, 12 days observation, DMF n=5, HDCA n=6, DMF and HDCA n=7
  Number of mice with estrous cycle recovered: 4 mice

Source: patent US12622890B2, “Use of the active compound in the prevention or treatment of ovarian dysfunction diseases” (INSTITUTE OF BIOPHYSICS, CHINESE ACADEMY OF SCIENCES, priority 2022, dated 2026)
